# In patent US6680052B1, “Methods of inhibiting tumor growth using adenosine receptor activated cells” (Endacea, Inc., priority 1999, dated 2004):
# How the values were obtained:
# [1] = system: pulmonary artery endothelial cells; test: Phospholipase A2 increase following hypoxia/anoxia of pulmonary artery endothelial cells in vitro; format: cell-based
# Description: Following ischemia and reperfusion, activation of A1 adenosine receptors present on pulmonary arterial endothelial cells results in a cytotoxic effect. In heart tissue adenosine, A1 adenosine receptor agonists, or a brief period (from approximately 5 to about 15 minutes) of preconditioning ischemia attenuates ischemia-reperfusion (I-R) injury. See, […] Keith, Am. J. Physiol. 268:[…] (1995). In the lung, thromboxane is released during ischemia and is a mediator of I-R injury. Adenosine produces vasoconstriction in the pulmonary vascular bed by acting on A1 receptors to induce the release of thromboxane. These vasoconstrictor responses in endothelial cells are desensitized by prior treatment with low doses of A1 receptor agonists. It was hypothesized that during preconditioning ischemia, adenosine attenuates ischemia-reperfusion injury of the heart by activation and subsequent desensitization of A1 adenosine receptors. Preconditioning ischemia attenuates ischemia-reperfusion (I-R) injury of both lung and heart. […]
# A1 adenosine receptors = target: T1, A1 adenosine receptors (Homo sapiens, UniProt P30542); test: Endotoxin induced inhibition of adenylate cyclase in pulmonary arterial endothelial cells; format: cell-based
# T1 construct: endogenous in cells; host or cells: pulmonary arterial endothelial cells
# T1 sequence (P30542 1-326): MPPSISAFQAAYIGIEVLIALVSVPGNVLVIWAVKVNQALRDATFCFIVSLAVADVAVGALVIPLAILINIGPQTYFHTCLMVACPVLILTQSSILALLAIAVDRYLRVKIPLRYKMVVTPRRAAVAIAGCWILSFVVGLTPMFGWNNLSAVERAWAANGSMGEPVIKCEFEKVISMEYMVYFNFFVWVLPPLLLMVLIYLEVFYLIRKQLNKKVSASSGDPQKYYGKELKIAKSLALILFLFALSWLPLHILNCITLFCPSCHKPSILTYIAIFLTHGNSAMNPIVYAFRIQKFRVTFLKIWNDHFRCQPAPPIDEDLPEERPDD
# Description: DPCPX and ^125I-BW A844U. […] Neely, Jin and Keith, Am J. Physiol., Lung Cell Mol. Physiol. , 268:L1036, 1995.
# [2] = system: pulmonary arterial endothelial cells; test: Thromboxane release from pulmonary arterial endothelial cells; format: cell-based
# Description: DPCPX and ^125I-BW A844U. These findings indicate that LPS binds to and activates Al adenosine receptors on pulmonary artery endothelial cells. Also, A1 adenosine receptor antagonists are able to block such endotoxin-induced lung injury, supporting that activation of A1 adenosine receptors is important in endotoxin-induced acute lung injury. Neely, Jin and Keith, Am J. Physiol., Lung Cell Mol. Physiol. , 268:L1036, 1995.
# The methods of the present invention also utilize hypoxia and reoxygenation conditions to increase A1 adenosine receptor activation and signal transduction pathways which, following activation, result in the release of cytotoxic substances. As noted above, following ischemia and reperfusion, activation of A1 adenosine receptors present on pulmonary arterial endothelial cells causes a cytotoxic effect (Neely and Keith (1995)), and the release of a cytotoxic substance, thromboxane, has been found by the present inventor to be blocked by an A1 adenosine receptor antagonist (DPCPX). In heart tissue adenosine, A1 adenosine receptor agonists, or a brief period of preconditioning ischemia attenuates ischemia-reperfusion (I-R) injury. In the lung, thromboxane is released during ischemia and is a mediator of I-R injury. Moreover, ischemia and reperfusion enhance the capacity of LPS to produce cytotoxicity and damage organs. […]
# [3] = system: human metastatic cell lines; details: administered directly to the cell lines, in vitro; cited from earlier work
# [4] = system: human epidermoid carcinoma cells; details: low versus higher concentrations; cited from earlier work
# monocytes = details: cited from earlier work
smiles,measurement,setting,value
"CCCn1c(=O)c2[nH]c(C3CCCC3)nc2n(CCC)c1=O [DPCPX, 1,3 dipropyl 8 cyclopentylxanthine]",increase in phospholipase A2 (PLA2),[1],inhibits
same,endotoxin induced inhibition of adenylate cyclase,A1 adenosine receptors,blocked
same,release of thromboxane,"[2]; following ischemia and reperfusion, A1 adenosine receptor activation",blocked
same,endotoxin induced thromboxane release,[2]; pulmonary arterial endothelial cells,blocked
"CCNC(=O)[C@H]1O[C@@H](n2cnc3c(N)ncnc32)[C@H](O)[C@@H]1O [NECA, 5′-(N-ethyl)-carboxamidoadenosine]",effect on cell growth,[3],inhibitory effect
"CCCn1c(=O)c2[nH]c(-c3ccc(Cl)cc3N)nc2n(CCC)c1=O [PACPX, 1,3-dipropyl-8-(2-amino-4-chloropheny)-xanthine]",effect on cell growth,[3],inhibitory effect
Nc1ncnc2c1ncn2[C@@H]1O[C@H](CO)[C@@H](O)[C@H]1O [adenosine],colony formation,[4],biphasic response
"[Na+].[Na+].[Na+].[O]=[V]([O-])([O-])[O-] [vanadate, sodium orthovanadate]",LPS induced production of TNFα,monocytes,enhanced
